According to patent US20150238539A1, “COMPOSITION FOR BRAIN-NEURON PROTECTION AND BRAIN-DISEASE PREVENTION, ALLEVIATION OR TREATMENT COMPRISING MUSKRAT MUSK” (priority 2012, published 2015):

Tests used:
[1] = system: male ICR mouse; assay: Passive avoidance experiment in mice with ethanol-induced memory damage; type: in vivo; details: oral once a day for 4 days; for Time of arrival in the learning test: acquisition trial, ethanol orally 30 minutes after last administration; for Time of arrival in the retention trial: step-through latency 24 hours after learning test, measured up to 300 seconds, then ethanol
Method: (§1) As for the experimental animals, 18 to 20 g of 45 male ICR mouse purchased from DAEHAN Animal Experiment Co., Ltd. were used. Specifically, the animals were classified to include five mice per group, then placed in a cage, sufficiently fed with water and foodstuff, and bred in an animal room wherein the temperature (24 ±1° C.), relative humidity (55±5%) and the light-dark (06:00-18:00, light) were controlled during the experiment period. The animals were classified into nine groups of the non-treated group, the ethanol group, the tacrine group and the groups of PREPARATIONS 1 to 6.
The passive avoidance experiment was performed in order to confirm the effects of the compositions of PREPARATIONS 1 to 6 on each memory and learning. This experiment uses the characteristics that animals intend to enter into the dark instinctively. If the animals intend to enter into the dark, an electrical stimulation is given to the animals to prevent from entering the dark. Thereafter, the short-term memory power against the electrical stimulation was measured.
Four days before the passive avoidance experiment, tacrine and substances PREPARATIONS 1 to 6 were orally administered to seven other groups except for the non-treated group and the ethanol group once a day. On day 4, the last day of administration, tacrine and compositions of PREPARATIONS 1 to 6 were orally administered. After 30 minutes, ethanol which undergoes damage to the memory power of mouse was orally administered to eight groups except for the non-treated group.
The passive avoidance experiment was conducted in the apparatus wherein each room having the same structure and 60 dB or less of noise and including a room with light and a room without light (width 20 cm, length 20 cm, height 20 cm) is connected to the guillotin door (Jungdo Bio & Plant Co. Ltd, Seoul, Korea). The mouse was placed in a bright room with shining light and observed for 10 seconds. Subsequently, the door was opened and the mouse was allowed to enter into the dark room. At this time, the time taken to go into a dark room was measured (Learning Test: acquisition trial). If the mouse enters into the dark room, the door is automatically closed. The electrical stimulation of 0.6 mA was given to the mouse through the stainless grid on the bottom for five seconds.
In order to confirm the effect of recovering the cognitive function of the composition the present invention, influencing on the long-term memory after the learning test, the mouse was placed on the bright side of the room after 24 hours. The time taken to go into the dark room (step-through latency time: time of arrival) was measured up to 300 seconds (retention trial).

[2] = system: male ICR mouse; assay: Morris water-maze experiment in mice with ethanol-induced memory damage; type: in vivo; details: oral once a day for 4 days, then ethanol; for Mean escape latency: mean of 3 trials a day, cut-off 120 seconds; for Time spent in quadrant: probe test on last day, escape platform removed
Method: as §1
The morris water-maze experiment was carried out to measure the degree affecting the recovery of the spatial perception ability and short-term or long-term memory power in experimental animals.
Prior to the morris water-maze experiment, tacrine and the substances of PREPARATIONS 1 to 6 were orally administered to seven groups except for the non-treated group and the ethanol group once a day. On the 4th day, the last day of administration, tacrine and the substances from Preparations 1 to 6 were administered. After 30 minutes, ethanol which undergoes damage to the memory power of the mouse was orally administered to eight groups except for the non-treated group.
In the morris water-maze apparatus, water (temperature: 22±2° C.) was filled by 32 cm within a tank filled with opaque water (diameter 120 cm, height 45 cm) and an escape platform (diameter 10 cm, height 30 cm) was installed in one section of the quadrant located 2 cm below the surface of the water. The powdered skim milk was added to be invisible. The experiment was conducted for five days. The possibility of going to the escape area by chance by changing the positions of acquisition three times a day at three different positions which were minimized. If animals go to the escape area and stay for more than 10 seconds, the time taken until an escape area was found was set to the escape latency. The mean value of the experiments 3 times a day was set to the mean escape latency. In the morris water-maze test, since the test animals remembered and find out the targeting position, the position of the marker was remained constant during the experiment period so that there was no change in the surrounding environment. In the case where the escape platform was not found within 120 seconds, the experiment animal was induced to the escape platform and stayed for 10 seconds, thereby having the position remembered.
On the last day of the experiment, the escape platform was removed. The probe test for measuring the time spent in platform quadrant was carried out.

Compound | Time of arrival in the learning test [1] [s] | Time of arrival in the retention trial [1] [s] | Mean escape latency [2] [s] | Time spent in quadrant [2] [s]
CCO [Ethanol, ethanol] | 12 | 21 | 121 | 18
Nc1c2c(nc3ccccc13)CCCC2 [Tacrine, tacrine] | 20 | 85 | 56 | 28
